Laboratory results from ChEMBL document CHEMBL4002567, “Rational design and synthesis of 1,5-disubstituted tetrazoles as potent inhibitors of the MDM2-p53 interaction” (Eur J Med Chem, 2017).

Assays:
Protein Mdm4 = target: T1, Protein Mdm4 (Homo sapiens, UniProt O15151)
T1 sequence (O15151 whole entry): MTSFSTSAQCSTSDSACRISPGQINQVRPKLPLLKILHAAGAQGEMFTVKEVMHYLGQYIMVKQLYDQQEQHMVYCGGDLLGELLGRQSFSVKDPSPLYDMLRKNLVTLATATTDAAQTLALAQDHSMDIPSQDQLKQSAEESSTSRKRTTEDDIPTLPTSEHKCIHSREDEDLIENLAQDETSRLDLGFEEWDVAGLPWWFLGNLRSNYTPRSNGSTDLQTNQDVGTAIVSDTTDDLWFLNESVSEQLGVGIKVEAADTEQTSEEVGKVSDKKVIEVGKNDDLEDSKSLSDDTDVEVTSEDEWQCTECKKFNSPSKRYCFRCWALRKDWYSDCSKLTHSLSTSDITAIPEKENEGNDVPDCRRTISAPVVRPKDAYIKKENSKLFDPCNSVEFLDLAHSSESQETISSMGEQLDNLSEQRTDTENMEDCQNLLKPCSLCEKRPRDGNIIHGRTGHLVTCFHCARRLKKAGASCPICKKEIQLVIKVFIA

[1] = target: E3 ubiquitin-protein ligase Mdm2 (Homo sapiens, UniProt Q00987)
E3 ubiquitin-protein ligase Mdm2, sequence (Q00987 whole entry): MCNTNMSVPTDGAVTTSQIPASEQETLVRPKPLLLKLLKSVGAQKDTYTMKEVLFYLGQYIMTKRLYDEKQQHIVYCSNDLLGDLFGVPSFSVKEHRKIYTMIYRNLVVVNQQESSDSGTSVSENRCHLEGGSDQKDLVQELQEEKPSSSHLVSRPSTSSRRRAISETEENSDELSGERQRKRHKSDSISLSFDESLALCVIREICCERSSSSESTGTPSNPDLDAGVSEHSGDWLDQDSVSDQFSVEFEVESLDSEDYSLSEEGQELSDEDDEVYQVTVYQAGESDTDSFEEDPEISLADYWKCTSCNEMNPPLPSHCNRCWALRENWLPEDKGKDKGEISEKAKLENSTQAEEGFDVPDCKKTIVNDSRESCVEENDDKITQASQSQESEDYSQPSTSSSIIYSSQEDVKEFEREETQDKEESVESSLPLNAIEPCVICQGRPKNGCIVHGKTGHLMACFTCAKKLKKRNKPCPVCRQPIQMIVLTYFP

Row | Structure (SMILES) | Ki (Protein Mdm4) | Ki ([1]; read-out: Ki) [µM] | Ki [1]
1 | CCCCCNC(c1c(C(=O)O)[nH]c2cc(Cl)ccc12)c1nnnn1-c1ccc(OCc2ccccc2Br)cc1 (configuration not stated) | Not Active |  | 
2 | CCCCCNC(c1c(C(=O)O)[nH]c2cc(Cl)ccc12)c1nnnn1-c1ccc(F)c(Cl)c1 (configuration not stated) | Not Active |  | 
3 | O=C(O)c1[nH]c2cc(Cl)ccc2c1C(NC1CCCCCC1)c1nnnn1-c1cccc(OCc2ccccc2)c1 (configuration not stated) | Not Active |  | 
4 | O=C(O)c1[nH]c2cc(Cl)ccc2c1C(NC1CCCC1)c1nnnn1-c1cccc(Oc2ccccc2)c1 (configuration not stated) | Not Active |  | 
5 | O=C(O)c1[nH]c2cc(Cl)ccc2c1C(NCC1CCCCC1)c1nnnn1-c1ccc(F)c(Cl)c1 (configuration not stated) | Not Active |  | 
6 | O=C(O)c1[nH]c2cc(Cl)ccc2c1C(NC1CCCCCC1)c1nnnn1-c1ccc(OCc2ccccc2)cc1 (configuration not stated) | Not Active |  | 
7 | CCOC(=O)c1[nH]c2cc(Cl)ccc2c1C(NCC1CCCCC1)c1nnnn1-c1ccc(Cl)cc1 (configuration not stated) |  | 117 | 
8 | CCOC(=O)c1[nH]c2cc(Cl)ccc2c1C(NCC1CCCCC1)c1nnnn1Cc1ccc(Cl)cc1 (configuration not stated) | Not Active |  | Not Active
9 | CCOC(=O)c1[nH]c2cc(Cl)ccc2c1C(NCC1CCCCC1)c1nnnn1-c1ccc(OCc2c(Cl)cccc2Cl)cc1 (configuration not stated) | Not Active |  | Not Active
10 | CCCCCNC(c1c(C(=O)OCC)[nH]c2cc(Cl)ccc12)c1nnnn1-c1ccc(OCc2c(Cl)cccc2Cl)cc1 (configuration not stated) | Not Active |  | Not Active
11 | CCCCCNC(c1c(C(=O)OCC)[nH]c2cc(Cl)ccc12)c1nnnn1Cc1ccc(Cl)cc1 (configuration not stated) | Not Active |  | Not Active
12 | CCCCCNC(c1c(C(=O)OCC)[nH]c2cc(Cl)ccc12)c1nnnn1Cc1ccc(OCc2ccccc2Br)cc1 (configuration not stated) | Not Active |  | Not Active
13 | CCOC(=O)c1[nH]c2cc(Cl)ccc2c1C(NC1CCCC1)c1nnnn1-c1ccc(OCc2ccccc2)cc1 (configuration not stated) | Not Active |  | Not Active
14 | CCOC(=O)c1[nH]c2cc(Cl)ccc2c1C(NC1CCCC1)c1nnnn1-c1cccc(Oc2ccccc2)c1 (configuration not stated) | Not Active |  | Not Active
15 | O=C(O)c1[nH]c2cc(Cl)ccc2c1C(NCC1CCCCC1)c1nnnn1-c1ccc(OCc2ccc(Br)cc2)cc1 (configuration not stated) | Not Active |  | 
16 | O=C(O)c1[nH]c2cc(Cl)ccc2c1C(NC1CCCCC1)c1nnnn1-c1cccc(Oc2ccccc2)c1 (configuration not stated) | Not Active |  | 
17 | CCCCCNC(c1c(C(=O)O)[nH]c2cc(Cl)ccc12)c1nnnn1Cc1ccc(OCc2ccccc2Br)cc1 (configuration not stated) | Not Active |  | 
18 | O=C(O)c1[nH]c2cc(Cl)ccc2c1C(NCC1CCCCC1)c1nnnn1Cc1ccc(OCc2ccccc2F)cc1 (configuration not stated) | Not Active |  | 
19 | CCOC(=O)c1[nH]c2cc(Cl)ccc2c1C(NCc1ccc(Cl)cc1)c1nnnn1Cc1ccc(OCc2ccccc2Br)cc1 (configuration not stated) | Not Active |  | Not Active
20 | CCOC(=O)c1[nH]c2cc(Cl)ccc2c1C(NC1CCCCC1)c1nnnn1-c1cccc(Oc2ccccc2)c1 (configuration not stated) | Not Active |  | Not Active

Row | Structure (SMILES) | Ki (Protein Mdm4) | Ki ([1]; read-out: Ki) [µM] | Ki [1]
21 | O=C(O)c1[nH]c2cc(Cl)ccc2c1C(NC1CCCCCC1)c1nnnn1-c1cccc(Oc2ccccc2)c1 (configuration not stated) | Not Active |  | 
22 | CCOC(=O)c1[nH]c2cc(Cl)ccc2c1C(NC1CCCCCC1)c1nnnn1-c1ccc(OCc2ccccc2)cc1 (configuration not stated) | Not Active |  | Not Active
23 | O=C(O)c1[nH]c2cc(Cl)ccc2c1C(NC1CCCCC1)c1nnnn1-c1cccc(OCc2ccccc2)c1 (configuration not stated) | Not Active |  | 
24 | CCCCCNC(c1c(C(=O)OCC)[nH]c2cc(Cl)ccc12)c1nnnn1-c1ccc(C(C)C)cc1 (configuration not stated) | Not Active |  | Not Active
25 | CCCCCNC(c1c(C(=O)OCC)[nH]c2cc(Cl)ccc12)c1nnnn1-c1ccc(F)c(Cl)c1 (configuration not stated) | Not Active |  | Not Active
26 | CCCCCNC(c1c(C(=O)OCC)[nH]c2cc(Cl)ccc12)c1nnnn1Cc1ccc(OCc2ccccc2Cl)cc1 (configuration not stated) | Not Active |  | Not Active
27 | O=C(O)c1[nH]c2cc(Cl)ccc2c1C(NC1C2CC3CC(C2)CC1C3)c1nnnn1-c1ccc(OCc2ccccc2Br)cc1 (configuration not stated) | Not Active |  | 
28 | CCOC(=O)c1[nH]c2cc(Cl)ccc2c1C(NCC1CCCCC1)c1nnnn1-c1ccc(OCc2ccccc2Br)cc1 (configuration not stated) | Not Active |  | Not Active
29 | CCCCCNC(c1c(C(=O)O)[nH]c2cc(Cl)ccc12)c1nnnn1Cc1ccc(Cl)cc1 (configuration not stated) | Not Active |  | 
30 | CCOC(=O)c1[nH]c2cc(Cl)ccc2c1C(NCC1CCCCC1)c1nnnn1-c1ccc(OCc2ccc(Br)cc2)cc1 (configuration not stated) | Not Active |  | Not Active
31 | CCCCCNC(c1c(C(=O)O)[nH]c2cc(Cl)ccc12)c1nnnn1Cc1ccc(OCc2ccccc2Cl)cc1 (configuration not stated) | Not Active |  | 
32 | CCCCCNC(c1c(C(=O)O)[nH]c2cc(Cl)ccc12)c1nnnn1-c1ccc(OCc2c(Cl)cccc2Cl)cc1 (configuration not stated) | Not Active |  | 
33 | CC(C)c1ccc(-n2nnnc2C(NCC2CCCCC2)c2c(C(=O)O)[nH]c3cc(Cl)ccc23)cc1 (configuration not stated) | Not Active |  | 
34 | CCOC(=O)c1[nH]c2cc(Cl)ccc2c1C(NCC1CCCCC1)c1nnnn1Cc1ccc(OCc2ccccc2Br)cc1 (configuration not stated) | Not Active |  | Not Active
35 | O=C(O)c1[nH]c2cc(Cl)ccc2c1C(NC1CCCCC1)c1nnnn1-c1ccc(OCc2ccccc2)cc1 (configuration not stated) | Not Active |  | 
36 | CCOC(=O)c1[nH]c2cc(Cl)ccc2c1C(NC1CCCCCC1)c1nnnn1-c1cccc(OCc2ccccc2)c1 (configuration not stated) | Not Active |  | Not Active
37 | CCOC(=O)c1[nH]c2cc(Cl)ccc2c1C(NC1CCC1)c1nnnn1-c1ccc(OCc2ccccc2Br)cc1 (configuration not stated) | Not Active |  | Not Active
38 | CCCCCNC(c1c(C(=O)O)[nH]c2cc(Cl)ccc12)c1nnnn1-c1ccc(C(C)C)cc1 (configuration not stated) | Not Active |  | 
39 | O=C(O)c1[nH]c2cc(Cl)ccc2c1C(NCc1ccc(Cl)cc1)c1nnnn1Cc1ccc(Cl)cc1 (configuration not stated) | Not Active |  | 
40 | CCCCCNC(c1c(C(=O)OCC)[nH]c2cc(Cl)ccc12)c1nnnn1-c1ccc(OCc2ccccc2Br)cc1 (configuration not stated) | Not Active |  | Not Active

Row | Structure (SMILES) | Ki (Protein Mdm4) | Ki ([1]; read-out: Ki) [µM] | Ki [1]
41 | O=C(O)c1[nH]c2cc(Cl)ccc2c1C(NC1CCC1)c1nnnn1-c1ccc(OCc2ccccc2Br)cc1 (configuration not stated) | Not Active |  | 
42 | O=C(O)c1[nH]c2cc(Cl)ccc2c1C(NC1CCCC1)c1nnnn1-c1cccc(OCc2ccccc2)c1 (configuration not stated) | Not Active |  | 
43 | CCCCCNC(c1c(C(=O)O)[nH]c2cc(Cl)ccc12)c1nnnn1-c1ccc(OCc2ccc(Br)cc2)cc1 (configuration not stated) | Not Active |  | 
44 | CCOC(=O)c1[nH]c2cc(Cl)ccc2c1C(NC1CCCCC1)c1nnnn1-c1ccc(OCc2ccccc2)cc1 (configuration not stated) | Not Active |  | Not Active
45 | O=C(O)c1[nH]c2cc(Cl)ccc2c1C(NCC1CCCCC1)c1nnnn1Cc1ccc(Cl)cc1 (configuration not stated) | Not Active |  | 
46 | CCOC(=O)c1[nH]c2cc(Cl)ccc2c1C(NCC1CCCCC1)c1nnnn1Cc1ccc(OCc2ccccc2Cl)cc1 (configuration not stated) | Not Active |  | Not Active
47 | CCOC(=O)c1[nH]c2cc(Cl)ccc2c1C(NCC1CCCCC1)c1nnnn1-c1ccc(F)c(Cl)c1 (configuration not stated) | Not Active |  | Not Active
48 | O=C(O)c1[nH]c2cc(Cl)ccc2c1C(NCC1CCCCC1)c1nnnn1-c1ccc(OCc2ccccc2Br)cc1 (configuration not stated) | Not Active |  | 
49 | O=C(O)c1[nH]c2cc(Cl)ccc2c1C(NCC1CCCCC1)c1nnnn1-c1ccc(OCc2c(Cl)cccc2Cl)cc1 (configuration not stated) | Not Active |  | 
50 | CCOC(=O)c1[nH]c2cc(Cl)ccc2c1C(NCc1ccc(Cl)cc1)c1nnnn1Cc1ccc(Cl)cc1 (configuration not stated) | Not Active |  | Not Active
51 | CCCCCNC(c1c(C(=O)OCC)[nH]c2cc(Cl)ccc12)c1nnnn1-c1ccc(OCc2ccc(Br)cc2)cc1 (configuration not stated) | Not Active |  | Not Active
52 | O=C(O)c1[nH]c2cc(Cl)ccc2c1C(NCc1ccc(Cl)cc1)c1nnnn1Cc1ccc(OCc2ccccc2Br)cc1 (configuration not stated) | Not Active |  | 
53 | O=C(O)c1[nH]c2cc(Cl)ccc2c1C(NCC1CCCCC1)c1nnnn1Cc1ccc(OCc2ccccc2Br)cc1 (configuration not stated) | Not Active |  | 
54 | CCOC(=O)c1[nH]c2cc(Cl)ccc2c1C(NC1CCCCCC1)c1nnnn1-c1cccc(Oc2ccccc2)c1 (configuration not stated) | Not Active |  | Not Active
55 | CCCCCNC(c1c(C(=O)O)[nH]c2cc(Cl)ccc12)c1nnnn1-c1ccc(Cl)cc1 (configuration not stated) | Not Active |  | 
56 | O=C(O)c1[nH]c2cc(Cl)ccc2c1C(NCC1CCCCC1)c1nnnn1Cc1ccc(OCc2ccccc2Cl)cc1 (configuration not stated) | Not Active |  | 
57 | CCCCCNC(c1c(C(=O)OCC)[nH]c2cc(Cl)ccc12)c1nnnn1-c1ccc(Cl)cc1 (configuration not stated) | Not Active |  | Not Active
58 | O=C(O)c1[nH]c2cc(Cl)ccc2c1C(NC1CCCC1)c1nnnn1-c1ccc(OCc2ccccc2)cc1 (configuration not stated) | Not Active |  | 
59 | CCOC(=O)c1[nH]c2cc(Cl)ccc2c1C(NC1CCCCC1)c1nnnn1-c1cccc(OCc2ccccc2)c1 (configuration not stated) | Not Active |  | Not Active
60 | CCCCCNC(c1c(C(=O)OCC)[nH]c2cc(Cl)ccc12)c1nnnn1Cc1ccc(OCc2ccccc2F)cc1 (configuration not stated) | Not Active |  | 
